# Results taken from paper PMC9037614 (RSC Advances, 2021).
# How the values were obtained:
# Experiment in all cases: cells
# Format in all cases: cell-based
# [1] = test system: human non-small-cell lung cancer A549 cells; settings: A549, read-out: IC50 against A549
# [2] = test system: human non-small-cell lung cancer H460 cells; settings: NCI-H460, read-out: IC50 against H460
# [3] = test system: human bronchial epithelial cell line HBE; settings: for IC50: Homo sapiens, HBE, read-out: IC50 against HBE
SMILES,IC50 [1] [µM],IC50 [2] [µM],IC50 [3] [µM],"selectivity towards cancerous cell lines over non-cancerous cell line ([3]; A549/H460 versus HBE, from IC50 values)"
"C=C1[C@H]2C[C@@]3([C@@H]1O)[C@@H](CC2=O)[C@]12[C@@H]4C[C@H]3[C@H]1N(CC)C[C@]4(C)CC[C@@H]2O [Compound 5, songorine]",21.2 ± 0.84,25.1 ± 0.59,32.4 ± 2.62,–
"O=c1[nH]cc(F)c(=O)[nH]1 [Compound 5-FU, 5-fluorouracil, reference compound]",12.5 ± 8.81,6.16 ± 1.8,8.93 ± 6.05,–
"CCN1C[C@]2(C)CC[C@H](O)[C@@]34C5C[C@@H]6[C@@H](OC)C[C@@](O)(C5[C@H]6O)[C@@H](CC23)C14 (stereo partly shown) [Compound 9, karacoline]",8.28 ± 0.41,9.69 ± 0.4,49.7 ± 8.11,higher selectivity
"CCN1C[C@]2(COC)CC[C@H](O)[C@@]34C5C[C@@H]6[C@@H](OC)C[C@](O)(C(CC23)C14)C5[C@H]6OC(C)=O (stereo partly shown) [Compound 30, condelphine]",16.4 ± 2.38,16 ± 1.15,31.4 ± 6,–
"COC[C@@]12CC[C@H](OC)[C@]34C(C([C@H](OC)[C@H]13)[C@]1(OC(C)=O)[C@H]3[C@@H](OC(=O)c5ccccc5)[C@](O)(C[C@H]34)[C@@H](OC)[C@@H]1O)N(C)C2 [Compound 33, hypaconitine]",14.3 ± 1.79,16.5 ± 2.22,32.7 ± 4.56,–
"CCN1C[C@]2(COC)CC[C@H](OC)[C@]34C1C([C@H](OC)[C@H]23)[C@]1(OC(C)=O)[C@H]2[C@@H](OC(=O)c3ccccc3)[C@](O)(C[C@H]24)[C@@H](OC)[C@@H]1O [Compound 34, deoxyaconitine]",14.9 ± 4.02,14.6 ± 1.32,31 ± 4.8,–
